# Test results taken from patent publication US20200289554A1, “BIOORTHOGONAL COMPOUNDS COMPRISING A PROPARGYL GROUP FOR TREATING CANCER” (THE UNIVERSITY COURT OF THE UNIVERSITY OF EDINBURGH, priority 2016, published 2020).
# Columns and labels:
# [1] = tested on: U87G cells; experiment: Prodrug safety dose-response cell viability (PrestoBlue), U87G; assay type: cell-based, human; details: Homo sapiens, 120 h; U87G cells, 5 days, no catalyst; read-out: EC50 (cell viability)
# Experimental: (§1) These cell lines were selected as these are primary malignancies against which the parental drugs are currently prescribed.
# (§2) The toxicities of each active agent and prodrugs were compared by performing dose-response studies. […] Cell viability was analysed by fluoresce intensity (λex=540 nm; λem=590 nm) after 60-90 min incubation with PrestoBlue™ Reagent (Life Technologies).
# [2] = tested on: T98 cells; experiment: Prodrug safety dose-response cell viability (PrestoBlue), T98; assay type: cell-based; details: Homo sapiens, 120 h, 5 days, no catalyst
# Experimental: as §1, §2
# [3] = tested on: A549 cells; experiment: BOOM conversion: prodrug + metal resins in cell culture, cell viability, A549; assay type: cell-based, human
# Experimental: Cell viabilities for each prodrug provided as a combination with palladium is presented in FIG. 3 and gold is presented in FIG. 33 in the right of each set of two bars. […] Cells were incubated in tissue culture media containing 0.1% (v/v) DMSO and: Pd^0, Au, or Pd/Au-resins (1 mg/mL, negative control); 100 μM of each prodrug (negative control); and Pd^0, Au, or Pd/Au-resins (1 mg/mL)+100 μM of each prodrug (BOOM reaction assay). Cells incubated in 0.1% (v/v) DMSO in media were used as untreated cell control.
# (§3) Following 5 days treatment, cells were incubated with PrestoBlue™ Cell Viability Reagent (Life Technologies) for 60-90 min. Fluorescence intensity values were related to the untreated cells (100% cell viability). […] Cells incubated in 0.1% (v/v) DMSO in media were used as untreated cell control.
# (§4) Cell viabilities for each prodrug provided as a combination with palladium is presented in FIG. 7 in the right of each set of two bars. Data for prodrug in the absence of palladium catalyst is also provided (the left bar of each set of two bars) for comparison along with negative controls (from left to right: DMSO, Pd^0 and Doxorubicin). Cells were incubated in tissue culture media containing 0.1% (v/v) DMSO and: Pd^0-resins (1 mg/mL, negative control); 1 μM of each prodrug (negative control); and Pd^0-resins (1 mg/mL)+1 μM of each prodrug (BOOM reaction assay). Cells incubated in 0.1% (v/v) DMSO in media were used as untreated cell control.
# (§5) Following 5 days treatment, cells were incubated with PrestoBlue™ Cell Viability Reagent (Life Technologies) for 90 min. Fluorescence intensity values were related to the untreated cells (100% cell viability). Data are provided in FIG. 8 for cells incubated in tissue culture media containing 0.1% (v/v) DMSO and: Pd^0-resins (1 mg/mL, negative control); 0.3-3 μM of Doxorubicin prodrug for A549 and DU145 cell lines, 0.1-1 μM of Doxorubicin prodrug for T98 cell line (negative control); 0.3-3 μM of Doxorubicin for A549 and DU145 cell lines, 0.1-1 μM of Doxorubicin for T98 cell line (positive control); and Pd^0-resin (1 mg/mL)+Doxorubicin prodrug (BOOM reaction assay). Cells incubated in 0.1% (v/v) DMSO in media were used as untreated cell control.
# as §4, with “21” for “7”, “panobinostat).” for “Doxorubicin).”
# (§6) The toxigenic effect as a result of in situ generation of parental drug in cell culture was determined by incubating all cells in tissue culture media containing 0.1% (v/v) DMSO and a) Pd^0, Au, or Pd/Au-resin (1 mg/mL for all cells tested, negative control); b) prodrug (negative control); or c) Pd^0, Au, or Pd/Au-resin (1 mg/mL for all cells)+prodrug (reaction assay). Cells incubated in 0.1% (v/v) DMSO in media was used as an untreated cell reference standard (100% viability). A PrestoBlue® cell viability assay as described above was carried out and fluorescent intensities compared to the untreated cell control.
# (§7) A dose response study was performed for each cell line keeping the quantity of Pd^0 resin constant (0.8 mg/mL for U87G and 1 mg/mL for the rest of cell lines). All cells were plated in Dulbecco's Modified Eagle Media (DMEM) supplemented with serum (10% FBS) and L-glutamine (2 mM). […]
# [4] = tested on: T98 cells; experiment: BOOM conversion: prodrug + Pd0-resins in cell culture, cell viability, T98; assay type: cell-based, human; details: Homo sapiens, 120 h, prodrug in combination with Pd0-resins 1 mg/mL, 5 days, read-out: EC50, prodrug + Pd-resins
# Experimental: as §3, §4, §5, §6, §7
smiles,measurement,setting,value
"C#CCOc1ccc(CONC(=O)CCCCCCC(=O)Nc2ccccc2)cc1 [POB-Vor, Propargyloxybenzyl-Vorinostat]",EC50,[1],> 500 µM
same,EC50,[2],> 500 µM
same,toxigenic effect of prodrug + Au resins,"[3]; Au resins 1 mg/mL, prodrug 100 μM",strong toxigenic effect
same,EC50,"[3]; Homo sapiens, 120 h, prodrug in combination with Pd0-resins 1 mg/mL, 5 days, read-out: EC50, prodrug + Pd-resins",10.5 µM
same,toxigenic effect of prodrug + Pd0 resins,"[3]; Pd0-resin 1 mg/mL, 100 μM Vorinostat prodrugs, 1 μM Doxorubicin prodrugs, 0.3 μM Panobinostat prodrug",strong toxigenic effect
same,toxigenic effect of prodrug + Pd/Au resins,"[3]; Pd/Au resins 1 mg/mL, prodrug 100 μM",strong toxigenic effect
same,EC50,[4],16.8 µM
